According to PubChem BioAssay (NCI):
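Results reflect a 48-hour exposure of cells in 96-well plates to compound at five concentrations. TGI: concentration producing complete growth inhibition.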

Key:
Test in all cases: NCI tumour cell line growth inhibition, 48 h
[1] = test system: A498 renal
[2] = test system: HOP-92 NSCLC
[3] = test system: P388 leukemia
[4] = test system: 786-0 renal
[5] = test system: ACHN renal
[6] = test system: CAKI-1 renal
[7] = test system: CCRF-CEM leukemia
[8] = test system: COLO 205 colon
[9] = test system: DLD-1 colon
[10] = test system: DMS 114 small cell lung
[11] = test system: DMS 273 small cell lung
[12] = test system: HCC-2998 colon
[13] = test system: HCT-116 colon
[14] = test system: HCT-15 colon
[15] = test system: HL-60(TB) leukemia
[16] = test system: HOP-62 NSCLC
[17] = test system: IGROV1 ovarian
[18] = test system: K-562 leukemia
[19] = test system: LXFL 529 NSCLC
[20] = test system: M14 melanoma
[21] = test system: M19-MEL melanoma
[22] = test system: MOLT-4 leukemia
[23] = test system: NCI-H226 lung
[24] = test system: NCI-H23 lung
[25] = test system: NCI-H460 lung
[26] = test system: NCI-H522 lung
[27] = test system: OVCAR-4 ovarian
[28] = test system: RPMI-8226 leukemia
[29] = test system: RXF-631 renal
[30] = test system: SF-268 CNS
[31] = test system: SF-539 CNS
[32] = test system: SK-MEL-2 melanoma
[33] = test system: SK-MEL-28 melanoma
[34] = test system: SK-OV-3 ovarian
[35] = test system: SN12C renal
[36] = test system: SNB-75 CNS
[37] = test system: SR leukemia
[38] = test system: UACC-62 melanoma
[39] = test system: UO-31 renal
[40] = test system: XF 498 CNS
[41] = test system: A549 NSCLC
[42] = test system: EKVX NSCLC
[43] = test system: HOP-18 NSCLC
[44] = test system: HT29 colon
[45] = test system: KM12 colon
[46] = test system: KM20L2 colon
[47] = test system: LOX IMVI melanoma
[48] = test system: MALME-3M melanoma
[49] = test system: MCF7 breast
[50] = test system: OVCAR-3 ovarian
[51] = test system: OVCAR-5 ovarian
[52] = test system: RXF 393 renal
[53] = test system: SF-295 CNS
[54] = test system: SK-MEL-5 melanoma
[55] = test system: SN12K1 renal
[56] = test system: SNB-19 CNS
[57] = test system: SNB-78 CNS
[58] = test system: SW-620 colon
[59] = test system: U251 CNS
[60] = test system: UACC-257 melanoma

For `Cc1nc(=O)n2c(c1C(=O)Nc1ccc(Cl)cc1)NCC2`, the TGI [1] was over 100 µM, the TGI [2] was over 100 µM and the TGI [3] was over 31.6 µM.

Compound `Cc1[nH]c(=O)nc(N(CCO)/N=C/c2ccccc2Cl)c1C(=O)Nc1cc(Cl)cc(Cl)c1` has a TGI [4] of 46.2 µM, a TGI [1] of 44.5 µM and a TGI [5] of over 100 µM. The TGI [6] was over 100 µM, the TGI [7] was over 100 µM and the TGI [8] was over 100 µM. The TGI [9] was over 100 µM, the TGI [10] was over 100 µM and the TGI [11] was over 100 µM. It also gave a TGI [12] of over 100 µM, a TGI [13] of 59.4 µM and a TGI [14] of over 100 µM. The TGI [15] was over 100 µM, the TGI [16] was 59.1 µM and the TGI [2] was 69.9 µM. For the same compound, the TGI [17] was over 100 µM, the TGI [18] was over 100 µM and the TGI [19] was over 100 µM. It also gave a TGI [20] of over 100 µM, a TGI [21] of over 100 µM and a TGI [22] of over 100 µM. It also gave a TGI [23] of 53.3 µM, a TGI [24] of over 100 µM and a TGI [25] of over 100 µM. The TGI [26] was 87.9 µM, the TGI [27] was 93 µM and the TGI [28] was over 100 µM. The TGI [29] was over 100 µM, the TGI [30] was over 100 µM and the TGI [31] was 60.1 µM. For the same compound, the TGI [32] was over 100 µM, the TGI [33] was over 100 µM and the TGI [34] was 49.8 µM. For the same compound, the TGI [35] was over 100 µM, the TGI [36] was 63.8 µM and the TGI [37] was over 100 µM. It also gave a TGI [38] of over 100 µM, a TGI [39] of over 100 µM and a TGI [40] of over 100 µM.

`Cc1c2cnccc2c(C)c2c1c1ccccc1n2CCCCCCNCc1ccccc1` showed a TGI [1] of 3.85 µM, a TGI [41] of 3.74 µM and a TGI [6] of 3.48 µM. For the same compound, the TGI [7] was 5.13 µM, the TGI [8] was 3.07 µM and the TGI [9] was 2.92 µM. For the same compound, the TGI [10] was 3.94 µM, the TGI [11] was 2.47 µM and the TGI [42] was 3.94 µM. For the same compound, the TGI [12] was 4.86 µM, the TGI [13] was 1.92 µM and the TGI [14] was 3.25 µM. The TGI [15] was 9.35 µM, the TGI [43] was 0.923 µM and the TGI [16] was 7.14 µM. For the same compound, the TGI [2] was 3.64 µM, the TGI [44] was 3.13 µM and the TGI [17] was 3.85 µM. It also gave a TGI [18] of 9.36 µM, a TGI [45] of 3.08 µM and a TGI [46] of 3.33 µM. The TGI [47] was 3.81 µM, the TGI [21] was 3.95 µM and the TGI [48] was 4.61 µM. For the same compound, the TGI [49] was 3.22 µM, the TGI [22] was 0.7 µM and the TGI [24] was 3.64 µM. For the same compound, the TGI [25] was 1.86 µM, the TGI [26] was 3.63 µM and the TGI [50] was 4.01 µM. The TGI [27] was 1.25 µM, the TGI [51] was 3.31 µM and the TGI [3] was 0.732 µM. It also gave a TGI [28] of 3.44 µM, a TGI [52] of 4.08 µM and a TGI [30] of 2.76 µM. For the same compound, the TGI [53] was 3.47 µM, the TGI [31] was 3.61 µM and the TGI [32] was 4.24 µM. For the same compound, the TGI [33] was 4.41 µM, the TGI [54] was 4.29 µM and the TGI [34] was 7.24 µM. For the same compound, the TGI [35] was 3.27 µM, the TGI [55] was 1.9 µM and the TGI [56] was 3.75 µM. The TGI [36] was 3.9 µM, the TGI [57] was 5.08 µM and the TGI [58] was 1.67 µM. For the same compound, the TGI [59] was 3.79 µM, the TGI [60] was 3.61 µM and the TGI [38] was 4.16 µM. The TGI [39] was 3.79 µM and the TGI [40] was 4.37 µM.
